Measurements as given in PubChem BioAssay AID248 (DTP/NCI, 2004).
Values joined by “and” are separate entries in the source; they are usually repeats but may differ in a detail not shown here. Identical values can stand only once. Toxic doses and inconclusive results are not listed. Rule as the data show it: active = T/C of 150% or more; inactive = T/C below 125%.

Test system: L1210 leukemia ip in BDF1 mice, survival T/C
Assay: NCI In Vivo Anticancer Drug Screen. Data for tumor model L1210 Leukemia (intraperitoneal) in B6D2F1 (BDF1) mice
Conditions: endpoint: mean survival time, higher = longer survival
Procedure, shortened: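 Transplanted-tumor mice were given test agent; controls received vehicle only. Survival readings from the two groups were divided (treated over control).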

[1] = dose: 100.0 mg/kg/injection, schedule: Q01DX009 (ip), vehicle: saline
[2] = dose: 100.0 mg/kg/injection, schedule: Q04DX003 (ip), vehicle: saline
[3] = dose: 200.0 mg/kg/injection, schedule: Q01DX009 (ip), vehicle: saline
[4] = dose: 200.0 mg/kg/injection, schedule: Q04DX003 (ip), vehicle: saline
[5] = dose: 400.0 mg/kg/injection, schedule: Q04DX003 (ip), vehicle: saline
[6] = dose: 100.0 mg/kg/injection, schedule: Q04DX003 (ip), vehicle: saline with Tween-80
[7] = dose: 200.0 mg/kg/injection, schedule: Q04DX003 (ip), vehicle: saline with Tween-80
[8] = dose: 400.0 mg/kg/injection, schedule: Q04DX003 (ip), vehicle: saline with Tween-80
[9] = dose: 100.0 mg/kg/injection, schedule: Q01DX009 (ip), vehicle: Klucel (hydroxypropylcellulose) (HPC)
[10] = dose: 200.0 mg/kg/injection, schedule: Q01DX009 (ip), vehicle: Klucel (hydroxypropylcellulose) (HPC)
[11] = dose: 400.0 mg/kg/injection, schedule: Q01DX009 (ip), vehicle: Klucel (hydroxypropylcellulose) (HPC)
[12] = dose: 100.0 mg/kg/injection, schedule: Q04DX003 (ip), vehicle: Klucel (hydroxypropylcellulose) (HPC)
[13] = dose: 200.0 mg/kg/injection, schedule: Q04DX003 (ip), vehicle: Klucel (hydroxypropylcellulose) (HPC)
[14] = dose: 400.0 mg/kg/injection, schedule: Q04DX003 (ip), vehicle: Klucel (hydroxypropylcellulose) (HPC)
[15] = dose: 100.0 mg/kg/injection, schedule: Q01DX001 (ip), vehicle: saline
[16] = dose: 200.0 mg/kg/injection, schedule: Q01DX001 (ip), vehicle: saline
[17] = dose: 400.0 mg/kg/injection, schedule: Q01DX001 (ip), vehicle: saline
[18] = dose: 100.0 mg/kg/injection, schedule: Q01DX001 (ip), vehicle: carboxymethylcellulose (CMC)

Measured: T/C

Nc1c(S(=O)(=O)O)ccc2c1C(=O)c1ccccc1C2=O
inactive: [1] 90 % of control | [2] 101 % of control | [3] 97 % of control | [4] 96 % of control | dose: 400.0 mg/kg/injection, schedule: Q01DX009 (ip), vehicle: saline 92 % of control | [5] 91 % of control

Nc1ccc(C(O)(C(F)(F)F)C(F)(F)F)c(C(=O)O)c1
inactive: dose: 100.0 mg/kg/injection, schedule: Q04DX003 (ip), vehicle: other 101 % of control | dose: 200.0 mg/kg/injection, schedule: Q04DX003 (ip), vehicle: other 101 % of control | dose: 400.0 mg/kg/injection, schedule: Q04DX003 (ip), vehicle: other 101 % of control

COC1=NS(=O)(=O)C=C(c2ccccc2)O1
inactive: dose: 300.0 mg/kg/injection, schedule: Q04DX002 (ip), vehicle: Klucel (hydroxypropylcellulose) (HPC) 100 % of control

CCOC(=O)NC(C)(C)CN(C(=O)OCC)C(C)C
inactive: [6] 97 % of control | [7] 101 % of control | [8] 117 % of control

CC1(CCCCCBr)OCCO1
inactive: [9] 97 % of control | [10] 100 % of control | [11] 94 % of control

CC1=CC(=C(c2ccccc2)c2ccccc2)C=C(C)C1=O
inactive: dose: 12.0 mg/kg/injection, schedule: Q01DX009 (ip), vehicle: Klucel (hydroxypropylcellulose) (HPC) 103 % of control | dose: 25.0 mg/kg/injection, schedule: Q01DX009 (ip), vehicle: Klucel (hydroxypropylcellulose) (HPC) 107 % of control | dose: 50.0 mg/kg/injection, schedule: Q01DX009 (ip), vehicle: Klucel (hydroxypropylcellulose) (HPC) 97 % of control | [9] 100 % of control | [12] 102 % of control | [13] 102 % of control | [14] 122 % of control

O=C(NC1CCCC2CCCCC21)OCCC1CCCCC1 (stereo unspecified)
inactive: [15] 95 % of control | [16] 103 % of control | [17] 95 % of control

Nc1c([N+](=O)[O-])cc([N+](=O)[O-])c2ccccc12
inactive: dose: 15.0 mg/kg/injection, schedule: Q01DX015 (ip), vehicle: carboxymethylcellulose (CMC) 91 % of control | dose: 30.0 mg/kg/injection, schedule: Q01DX015 (ip), vehicle: carboxymethylcellulose (CMC) 91 % of control | dose: 50.0 mg/kg/injection, schedule: Q01DX001 (ip), vehicle: carboxymethylcellulose (CMC) 104 % of control | dose: 60.0 mg/kg/injection, schedule: Q01DX015 (ip), vehicle: carboxymethylcellulose (CMC) 102 % of control | [18] 101 % of control | dose: 120.0 mg/kg/injection, schedule: Q01DX015 (ip), vehicle: carboxymethylcellulose (CMC) 98 % of control

OC(CI)C(O)CI (stereo unspecified)
inactive: dose: 75.0 mg/kg/injection, schedule: Q01DX001 (ip), vehicle: other 104 % of control | dose: 150.0 mg/kg/injection, schedule: Q01DX001 (ip), vehicle: other 106 % of control and 86 % of control | dose: 300.0 mg/kg/injection, schedule: Q01DX001 (ip), vehicle: other 101 % of control

CCC(C)C(CN)(CCCCN1CCCC1)c1cccc2ccccc12 (stereo unspecified)
inactive: [6] 102 % of control

CCCNC(=O)Nc1ccc(OC)cc1Cl
inactive: [9] 93 % of control | [10] 93 % of control | [11] 93 % of control

CCCCCN(CCCCC)CC(O)C1c2ccccc2Cc2ccccc21 (stereo unspecified)
inactive: dose: 5.0 mg/kg/injection, schedule: Q01DX001 (ip), vehicle: saline 102 % of control | dose: 10.0 mg/kg/injection, schedule: Q01DX001 (ip), vehicle: saline 98 % of control | dose: 20.0 mg/kg/injection, schedule: Q01DX001 (ip), vehicle: saline 102 % of control | dose: 40.0 mg/kg/injection, schedule: Q01DX001 (ip), vehicle: saline 104 % of control | [15] 101 % of control

c1ccc2c(c1)CC(=[N+]1CCCCC1)Cc1ccccc1-2
inactive: [1] 92 % of control | [2] 103 % of control | [3] 92 % of control | [4] 89 % of control | [5] 87 % of control

[O-][N+](=C1c2ccccc2-c2ccccc21)c1ccccc1
inactive: [2] 94 % of control | [4] 92 % of control | [5] 94 % of control

CCCN1CCN(CCO)CC1C (stereo unspecified)
inactive: [15] 98 % of control | [16] 101 % of control | [17] 98 % of control

CC(=O)OC1CCC2C3CCC4=CC(=O)CCC4(C)C3=CCC12C (stereo unspecified)
inactive: dose: 100.0 mg/kg/injection, schedule: Q01DX001 (ip), vehicle: saline with Tween-80 95 % of control | dose: 200.0 mg/kg/injection, schedule: Q01DX001 (ip), vehicle: saline with Tween-80 95 % of control | dose: 400.0 mg/kg/injection, schedule: Q01DX001 (ip), vehicle: saline with Tween-80 92 % of control

COc1ccccc1/C=N\NC(=O)CCCC(=O)N/N=C/c1ccccc1OC
inactive: dose: 50.0 mg/kg/injection, schedule: Q01DX001 (ip), vehicle: saline 95 % of control | [16] 95 % of control | [17] 90 % of control

COc1cc2c(cc1C(C)C)CCC1C(C)(C#N)CCCC21C (stereo unspecified)
inactive: dose: 100.0 mg/kg/injection, schedule: Q01DX009 (ip), vehicle: saline with Tween-80 96 % of control | [6] 100 % of control | dose: 200.0 mg/kg/injection, schedule: Q01DX009 (ip), vehicle: saline with Tween-80 89 % of control | [7] 96 % of control | dose: 400.0 mg/kg/injection, schedule: Q01DX009 (ip), vehicle: saline with Tween-80 92 % of control | [8] 100 % of control

OC1C2CCN(CC2)C1C(c1ccccc1)c1ccccc1 (stereo unspecified)
inactive: dose: 25.0 mg/kg/injection, schedule: Q04DX003 (ip), vehicle: saline with Tween-80 95 % of control | dose: 50.0 mg/kg/injection, schedule: Q04DX003 (ip), vehicle: saline with Tween-80 98 % of control | [6] 96 % of control and 87 % of control

Nc1ncnc(N)c1NC(=O)c1ccc(SCc2ccccc2)cc1
inactive: [9] 93 % of control | [11] 88 % of control

Cc1ccccc1N=NN(C)C
inactive: [18] 106 % of control | dose: 200.0 mg/kg/injection, schedule: Q01DX001 (ip), vehicle: carboxymethylcellulose (CMC) 106 % of control

N=C(N)Sc1n[nH]c(=O)[nH]c1=O
inactive: dose: 75.0 mg/kg/injection, schedule: Q01DX001 (ip), vehicle: alcohol 100 % of control | dose: 150.0 mg/kg/injection, schedule: Q01DX001 (ip), vehicle: alcohol 90 % of control

COc1ccc([N+](=O)[O-])cc1NC(=O)Nc1ccc(F)c([N+](=O)[O-])c1
inactive: [9] 98 % of control | [10] 95 % of control | [11] 95 % of control

Cc1ccc(S(=O)(=O)N2CCCC(=O)c3ccc(Cl)cc32)cc1
inactive: [9] 101 % of control | [12] 96 % of control | [10] 104 % of control | [13] 100 % of control | [11] 95 % of control | [14] 91 % of control

O=C(Nc1ccc(Cl)cc1)C(O)C(O)C(O)C(O)CO (stereo unspecified)
inactive: dose: 50.0 mg/kg/injection, schedule: Q01DX009 (ip), vehicle: saline 100 % of control | [1] 103 % of control | [3] 100 % of control

Cc1ccc(S(=O)(=O)Nc2ccccc2-c2nc3c(Cl)ccc(Cl)c3c(=O)o2)cc1
inactive: dose: 100.0 mg/kg/injection, schedule: Q01DX009 (ip), vehicle: other 105 % of control | [2] 88 % of control | dose: 200.0 mg/kg/injection, schedule: Q01DX009 (ip), vehicle: other 96 % of control | [4] 93 % of control | dose: 400.0 mg/kg/injection, schedule: Q01DX009 (ip), vehicle: other 104 % of control | [5] 90 % of control

Cc1ccc(NC(C(=O)O)c2ccccc2)cc1 (stereo unspecified)
inactive: dose: 100.0 mg/kg/injection, schedule: Q04DX002 (ip), vehicle: Klucel (hydroxypropylcellulose) (HPC) 104 % of control | dose: 200.0 mg/kg/injection, schedule: Q04DX002 (ip), vehicle: Klucel (hydroxypropylcellulose) (HPC) 111 % of control
